# Laboratory results taken from BindingDB's records for aid1799748 (Csar, 2012).
# Target: Urokinase-type plasminogen activator (Homo sapiens, UniProt P00749)
# Test: Abbott uPA__Urokinase Human - Ki(uM)
# Conditions: pH 7.4; 25 °C
row,SMILES,Ki [nM]
1,N#CC(CCOc1cccc2ccc(N)nc12)(c1ccccc1)c1ccccc1 [uPa_16],> 40000
2,N=C(N)NC(=O)c1nc(Cl)c(NCc2cc(Cl)cc(Cl)c2)nc1N [uPa_22],3570
3,N=C(N)c1ccc2cc(/C=C/CCc3cccnc3)cc(Br)c2c1 [uPa_32],3080
4,COC(=O)Nc1ccc2nc(N)ccc2c1 [uPa_24],> 50000
5,N=C(N)c1ccc2cc(NS(=O)(=O)c3ccccc3)ccc2c1 [uPa_14],8700
6,COc1cc(C2CC2c2ccc3c(c2)C(C(C)C)N(C)CC3)cc2ccc(C(=N)N)cc12 (stereo not drawn) [uPa_42],94
7,CS(=O)(=O)n1cc(-c2cc(C(=O)Nc3ccccc3)cc3ccc(C(=N)N)cc23)cn1 [uPa_20],769
8,CN1CCc2ccc(C3CC3c3ccc4cc(C(=N)N)ccc4c3)cc2C1c1cccnc1 (stereo not drawn) [uPa_44],1250
9,N=C(N)c1ccc2cc(C#Cc3cccc(OC4CCCC4)c3)ccc2c1 [uPa_25],665
10,CC(C)C1=NCCc2ccc(NC(=O)c3cc(Br)c4cc(C(=N)N)ccc4c3)cc21 [uPa_26],16
11,COC(=O)Nc1cc(C(=O)Nc2ccccc2)cc2ccc(C(=N)N)cc12 [uPa_36],18
12,CN1CCc2ccc(/C=C/c3ccc4cc(C(=N)N)ccc4c3)cc2C1C1CCCCC1 (stereo not drawn) [uPa_40],223
13,COc1cc(NC(=O)c2ccc3cc(C(=N)N)ccc3c2)cc(OC(C)C)c1 [uPa_28],33
14,COc1ccc2ccc(C(=N)N)cc2c1-c1cnn(C(C)C)c1 [uPa_11],4500
15,CC(C)C1c2cc(C3CC3c3cc(/C=C/C4CC4)c4cc(C(=N)N)ccc4c3)ccc2CCN1C (stereo not drawn) [uPa_43],9
16,CCOc1cc(OCC)c(OCC)cc1/C=C/c1cc(Br)c2cc(C(=N)N)ccc2c1 [uPa_38],777
17,Nc1ccc2nc(N)ccc2c1 [uPa_23],> 104000

row,SMILES,Ki [nM]
1,Nc1cnc2ccccc2n1 [uPa_1],> 50000
2,N=C(N)c1ccc2cc(C(=O)Nc3ccc4c(c3)C(C3CCCCC3)=NCC4)ccc2c1 [uPa_31],66
3,CC(C)Oc1ccc2cc(C(=N)N)ccc2c1 [uPa_5],7280
4,Nc1cc2ccccc2cn1,> 30000
5,N=C(N)c1ccc2cc(C(=O)Nc3ccccc3)cc(-c3ncccn3)c2c1 [uPa_21],7850
6,N=C(N)NC(=O)c1ccc(Cl)c(S(N)(=O)=O)c1 [uPa_45],> 100000
7,COc1cc2ccc(C(=N)N)cc2c(OC)c1OC [uPa_2],8030
8,CC(C)CN(CC(C)C)C(=O)c1ccc2ccc(N)nc2c1 [uPa_34],> 100000
9,CN1CCc2ccc(C3CC3c3ccc4cc(C(=N)N)ccc4c3)cc2C1C1CCC1 (stereo not drawn) [uPa_41],42
10,COC(=O)Nc1cc(C(=O)Nc2ccc(CN)cc2)cc2ccc(C(=N)N)cc12 [uPa_17],0.9
11,CS(=O)(=O)Nc1cc(CCc2ccccc2)cc2ccc(C(=N)N)cc12 [uPa_37],1490
12,N=C(N)c1ccc2cc(C(=O)Nc3ccc4c(c3)C(c3ccccc3)=NCC4)ccc2c1 [uPa_29],290
13,COC(=O)Nc1ccc2nc(C(=N)N)ccc2c1 [uPa_27],> 50000
14,C=CCNC(=O)Nc1cccc2ccc(N)nc12 [uPa_30],> 10000
15,CN(CC#N)C(=O)c1ccc2ccc(N)nc2c1 [uPa_35],> 100000
16,C#CCN(C)C(=O)c1ccc2ccc(N)nc2c1 [uPa_33],> 100000
